The values below come from patent US20150342906A1, “Anti-sneeze and nose vestibule care - compositions, methods, and devices” (priority 2014, published 2015).

Molecules are shown by their SMILES.

A short description of this test: oral 10 mg cetirizine pill during allergic reaction. In kind it is in vivo, human. Conditions: person, 10 mg pill around noon.

Procedure: The irritants in degraded fall leaves and yard debris caused an overwhelming allergic reaction. They took a pill of 10 mg cetirizine around 12 o'clock noon time. […] They suffered a severe running nose and sneezes. They used the anti-sneeze sticks and cotton swabs described in previous examples frequently.

For `O=C(O)COCCN1CCN(C(c2ccccc2)c2ccc(Cl)cc2)CC1` (stereo not shown) [cetirizine], the “effect of oral drug on allergic reaction, running nose and sneezes” value is recorded as “did not take effect as expected”.
